BindingDB's records for doi:10.1021/jm500763m (Beijing Institute of Pharmacology & Toxicology, 2014)
Square brackets hold non-standard residues; d marks the D form. Peptide text beside a SMILES is read from it. * marks the point of attachment. X1 = C=CCOC(=O)[C@]12CC[C@@H](C(=C)C)[C@@H]1[C@H]1CC[C@@H]3[C@@]4(C)CC[C@H](OC(=O)CCc5cn(CC(=O)*)nn5)C(C)(C)[C@@H]4CC[C@@]3(C)[C@]1(C)CC2; X9 = C=CCOC(=O)[C@]12CC[C@@H](C)[C@H](C)[C@H]1C1=CC[C@@H]3[C@@]4(C)CC[C@H](OC(=O)CCc5cn(CC(=O)*)nn5)C(C)(C)[C@@H]4CC[C@@]3(C)[C@]1(C)CC2; X3 = C=C(C)[C@@H]1CC[C@]2(C(=O)O)CC[C@]3(C)[C@H](CC[C@@H]4[C@@]5(C)CC[C@H](OC(=O)CCc6cn(CC(=O)*)nn6)C(C)(C)[C@@H]5CC[C@]43C)[C@@H]12; X5 = C=C(C)[C@@H]1CC[C@]2(C(=O)OCc3cn(CC(=O)*)nn3)CC[C@]3(C)[C@H](CC[C@@H]4[C@@]5(C)CC[C@H](OC(C)=O)C(C)(C)[C@@H]5CC[C@]43C)[C@@H]12; X4 = C=C(C)[C@@H]1CC[C@]2(C(=O)OCc3cn(CC(=O)*)nn3)CC[C@]3(C)[C@H](CC[C@@H]4[C@@]5(C)CC[C@H](O)C(C)(C)[C@@H]5CC[C@]43C)[C@@H]12; X6 = CC1(C)CC[C@]2(C(=O)O)CC[C@]3(C)C(=CC[C@@H]4[C@@]5(C)CC[C@H](OC(=O)CCc6cn(CC(=O)*)nn6)C(C)(C)[C@@H]5CC[C@]43C)[C@@H]2C1; X11 = CCCc1cn(CC(=O)*)nn1; βAla = NCCC(=O)O

Assay: Inhibition of HIV1 gp41-induced cell-cell fusion between viral envelope expressing human HL2/3 cells to CD4/CCR5 receptor expressing TZM-bl cells after 6 to 8 hrs by luciferase assay

C=C(C)[C@@H]1CC[C@]2(C(=O)OCc3cn(CC(=O)NCCCC[C@H](NC(=O)CCNC(=O)[C@H](CC(C)C)NC(=O)[C@H](CC(C)C)NC(=O)[C@H](CCC(=O)O)NC(=O)[C@H](CCC(N)=O)NC(=O)[C@H](CCC(=O)O)NC(=O)[C@H](CC(N)=O)NC(=O)[C@H](CCCCN)NC(=O)[C@H](CCC(=O)O)NC(=O)[C@H](CCC(N)=O)NC(=O)[C@H](CCC(N)=O)NC(=O)[C@H](CC(N)=O)NC(=O)[C@H](CCC(N)=O)NC(=O)[C@H](CO)NC(=O)[C@H](CCC(=O)O)NC(=O)[C@H](CCC(=O)O)NC(=O)[C@@H](NC(=O)[C@H](CC(C)C)NC(=O)[C@H](CO)NC(=O)[C@H](Cc4cnc[nH]4)NC(=O)[C@@H](NC(=O)[C@H](CC(C)C)NC(=O)[C@H](CO)NC(=O)[C@@H](NC(=O)[C@H](Cc4ccc(O)cc4)NC(=O)[C@H](CC(N)=O)NC(=O)[C@H](CC(N)=O)NC(C)=O)[C@@H](C)O)[C@@H](C)CC)[C@@H](C)CC)C(N)=O)nn3)CC[C@]3(C)[C@H](CC[C@@H]4[C@@]5(C)CC[C@H](O)C(C)(C)[C@@H]5CC[C@]43C)[C@@H]12 (Ac-NNYTSLIHSLIEESQNQQEKNEQELL[βAla]K(X4)-NH2)
EC50: 20 nM

C=C(C)[C@@H]1CC[C@]2(C(=O)OCc3cn(CC(=O)NCCCC[C@H](NC(=O)CCNC(=O)[C@H](CC(C)C)NC(=O)[C@H](CC(C)C)NC(=O)[C@H](CCC(=O)O)NC(=O)[C@H](CCC(N)=O)NC(=O)[C@H](CCC(=O)O)NC(=O)[C@H](CC(N)=O)NC(=O)[C@H](CCCCN)NC(=O)[C@H](CCC(=O)O)NC(=O)[C@H](CCC(N)=O)NC(=O)[C@H](CCC(N)=O)NC(=O)[C@H](CC(N)=O)NC(=O)[C@H](CCC(N)=O)NC(=O)[C@H](CO)NC(=O)[C@H](CCC(=O)O)NC(=O)[C@H](CCC(=O)O)NC(=O)[C@@H](NC(=O)[C@H](CC(C)C)NC(=O)[C@H](CO)NC(=O)[C@H](Cc4cnc[nH]4)NC(=O)[C@@H](NC(=O)[C@H](CC(C)C)NC(=O)[C@H](CO)NC(=O)[C@@H](NC(=O)[C@H](Cc4ccc(O)cc4)NC(=O)[C@H](CC(N)=O)NC(=O)[C@H](CC(N)=O)NC(C)=O)[C@@H](C)O)[C@@H](C)CC)[C@@H](C)CC)C(N)=O)nn3)CC[C@]3(C)[C@H](CC[C@@H]4[C@@]5(C)CC[C@H](OC(C)=O)C(C)(C)[C@@H]5CC[C@]43C)[C@@H]12 (Ac-NNYTSLIHSLIEESQNQQEKNEQELL[βAla]K(X5)-NH2)
EC50: 7.9 nM

C=CCOC(=O)[C@]12CC[C@@H](C)[C@H](C)[C@H]1C1=CC[C@@H]3[C@@]4(C)CC[C@H](OC(=O)CCc5cn(CC(=O)NCCCC[C@H](NC(=O)CCNC(=O)[C@H](CC(C)C)NC(=O)[C@H](CC(C)C)NC(=O)[C@H](CCC(=O)O)NC(=O)[C@H](CCC(N)=O)NC(=O)[C@H](CCC(=O)O)NC(=O)[C@H](CC(N)=O)NC(=O)[C@H](CCCCN)NC(=O)[C@H](CCC(=O)O)NC(=O)[C@H](CCC(N)=O)NC(=O)[C@H](CCC(N)=O)NC(=O)[C@H](CC(N)=O)NC(=O)[C@H](CCC(N)=O)NC(=O)[C@H](CO)NC(=O)[C@H](CCC(=O)O)NC(=O)[C@H](CCC(=O)O)NC(=O)[C@@H](NC(=O)[C@H](CC(C)C)NC(=O)[C@H](CO)NC(=O)[C@H](Cc6cnc[nH]6)NC(=O)[C@@H](NC(=O)[C@H](CC(C)C)NC(=O)[C@H](CO)NC(=O)[C@@H](NC(=O)[C@H](Cc6ccc(O)cc6)NC(=O)[C@H](CC(N)=O)NC(=O)[C@H](CC(N)=O)NC(C)=O)[C@@H](C)O)[C@@H](C)CC)[C@@H](C)CC)C(N)=O)nn5)C(C)(C)[C@@H]4CC[C@@]3(C)[C@]1(C)CC2 (Ac-NNYTSLIHSLIEESQNQQEKNEQELL[βAla]K(X9)-NH2)
EC50: 3.4 nM

CCCc1cn(CC(=O)NCCCC[C@H](NC(=O)CCNC(=O)[C@H](CC(C)C)NC(=O)[C@H](CC(C)C)NC(=O)[C@H](CCC(=O)O)NC(=O)[C@H](CCC(N)=O)NC(=O)[C@H](CCC(=O)O)NC(=O)[C@H](CC(N)=O)NC(=O)[C@H](CCCCN)NC(=O)[C@H](CCC(=O)O)NC(=O)[C@H](CCC(N)=O)NC(=O)[C@H](CCC(N)=O)NC(=O)[C@H](CC(N)=O)NC(=O)[C@H](CCC(N)=O)NC(=O)[C@H](CO)NC(=O)[C@H](CCC(=O)O)NC(=O)[C@H](CCC(=O)O)NC(=O)[C@@H](NC(=O)[C@H](CC(C)C)NC(=O)[C@H](CO)NC(=O)[C@H](Cc2cnc[nH]2)NC(=O)[C@@H](NC(=O)[C@H](CC(C)C)NC(=O)[C@H](CO)NC(=O)[C@@H](NC(=O)[C@H](Cc2ccc(O)cc2)NC(=O)[C@H](CC(N)=O)NC(=O)[C@H](CC(N)=O)NC(C)=O)[C@@H](C)O)[C@@H](C)CC)[C@@H](C)CC)C(N)=O)nn1 (Ac-NNYTSLIHSLIEESQNQQEKNEQELL[βAla]K(X11)-NH2)
EC50: 2180 nM

C=CCOC(=O)[C@]12CC[C@@H](C(=C)C)[C@@H]1[C@H]1CC[C@@H]3[C@@]4(C)CC[C@H](OC(=O)CCc5cn(CC(=O)NCCC(=O)N[C@@H](CC(N)=O)C(=O)N[C@@H](CC(N)=O)C(=O)N[C@@H](Cc6ccc(O)cc6)C(=O)N[C@H](C(=O)N[C@@H](CO)C(=O)N[C@@H](CC(C)C)C(=O)N[C@H](C(=O)N[C@@H](Cc6cnc[nH]6)C(=O)N[C@@H](CO)C(=O)N[C@@H](CC(C)C)C(=O)N[C@H](C(=O)N[C@@H](CCC(=O)O)C(=O)N[C@@H](CCC(=O)O)C(=O)N[C@@H](CO)C(=O)N[C@@H](CCC(N)=O)C(=O)N[C@@H](CC(N)=O)C(=O)N[C@@H](CCC(N)=O)C(=O)N[C@@H](CCC(N)=O)C(=O)N[C@@H](CCC(=O)O)C(=O)N[C@@H](CCCCN)C(=O)N[C@@H](CC(N)=O)C(=O)N[C@@H](CCC(=O)O)C(=O)N[C@@H](CCC(N)=O)C(=O)N[C@@H](CCC(=O)O)C(=O)N[C@@H](CC(C)C)C(=O)N[C@@H](CC(C)C)C(N)=O)[C@@H](C)CC)[C@@H](C)CC)[C@@H](C)O)nn5)C(C)(C)[C@@H]4CC[C@@]3(C)[C@]1(C)CC2 ({X1-βAla}-NNYTSLIHSLIEESQNQQEKNEQELL-NH2)
EC50: 197 nM

C=C(C)[C@@H]1CC[C@]2(C(=O)O)CC[C@]3(C)[C@H](CC[C@@H]4[C@@]5(C)CC[C@H](OC(=O)CCc6cn(CC(=O)NCCC(=O)N[C@@H](CC(N)=O)C(=O)N[C@@H](CC(N)=O)C(=O)N[C@@H](Cc7ccc(O)cc7)C(=O)N[C@H](C(=O)N[C@@H](CO)C(=O)N[C@@H](CC(C)C)C(=O)N[C@H](C(=O)N[C@@H](Cc7cnc[nH]7)C(=O)N[C@@H](CO)C(=O)N[C@@H](CC(C)C)C(=O)N[C@H](C(=O)N[C@@H](CCC(=O)O)C(=O)N[C@@H](CCC(=O)O)C(=O)N[C@@H](CO)C(=O)N[C@@H](CCC(N)=O)C(=O)N[C@@H](CC(N)=O)C(=O)N[C@@H](CCC(N)=O)C(=O)N[C@@H](CCC(N)=O)C(=O)N[C@@H](CCC(=O)O)C(=O)N[C@@H](CCCCN)C(=O)N[C@@H](CC(N)=O)C(=O)N[C@@H](CCC(=O)O)C(=O)N[C@@H](CCC(N)=O)C(=O)N[C@@H](CCC(=O)O)C(=O)N[C@@H](CC(C)C)C(=O)N[C@@H](CC(C)C)C(N)=O)[C@@H](C)CC)[C@@H](C)CC)[C@@H](C)O)nn6)C(C)(C)[C@@H]5CC[C@]43C)[C@@H]12 ({X3-βAla}-NNYTSLIHSLIEESQNQQEKNEQELL-NH2)
EC50: 15 nM

C=C(C)[C@@H]1CC[C@]2(C(=O)OCc3cn(CC(=O)NCCC(=O)N[C@@H](CC(N)=O)C(=O)N[C@@H](CC(N)=O)C(=O)N[C@@H](Cc4ccc(O)cc4)C(=O)N[C@H](C(=O)N[C@@H](CO)C(=O)N[C@@H](CC(C)C)C(=O)N[C@H](C(=O)N[C@@H](Cc4cnc[nH]4)C(=O)N[C@@H](CO)C(=O)N[C@@H](CC(C)C)C(=O)N[C@H](C(=O)N[C@@H](CCC(=O)O)C(=O)N[C@@H](CCC(=O)O)C(=O)N[C@@H](CO)C(=O)N[C@@H](CCC(N)=O)C(=O)N[C@@H](CC(N)=O)C(=O)N[C@@H](CCC(N)=O)C(=O)N[C@@H](CCC(N)=O)C(=O)N[C@@H](CCC(=O)O)C(=O)N[C@@H](CCCCN)C(=O)N[C@@H](CC(N)=O)C(=O)N[C@@H](CCC(=O)O)C(=O)N[C@@H](CCC(N)=O)C(=O)N[C@@H](CCC(=O)O)C(=O)N[C@@H](CC(C)C)C(=O)N[C@@H](CC(C)C)C(N)=O)[C@@H](C)CC)[C@@H](C)CC)[C@@H](C)O)nn3)CC[C@]3(C)[C@H](CC[C@@H]4[C@@]5(C)CC[C@H](O)C(C)(C)[C@@H]5CC[C@]43C)[C@@H]12 ({X4-βAla}-NNYTSLIHSLIEESQNQQEKNEQELL-NH2)
EC50: 89 nM

C=C(C)[C@@H]1CC[C@]2(C(=O)OCc3cn(CC(=O)NCCC(=O)N[C@@H](CC(N)=O)C(=O)N[C@@H](CC(N)=O)C(=O)N[C@@H](Cc4ccc(O)cc4)C(=O)N[C@H](C(=O)N[C@@H](CO)C(=O)N[C@@H](CC(C)C)C(=O)N[C@H](C(=O)N[C@@H](Cc4cnc[nH]4)C(=O)N[C@@H](CO)C(=O)N[C@@H](CC(C)C)C(=O)N[C@H](C(=O)N[C@@H](CCC(=O)O)C(=O)N[C@@H](CCC(=O)O)C(=O)N[C@@H](CO)C(=O)N[C@@H](CCC(N)=O)C(=O)N[C@@H](CC(N)=O)C(=O)N[C@@H](CCC(N)=O)C(=O)N[C@@H](CCC(N)=O)C(=O)N[C@@H](CCC(=O)O)C(=O)N[C@@H](CCCCN)C(=O)N[C@@H](CC(N)=O)C(=O)N[C@@H](CCC(=O)O)C(=O)N[C@@H](CCC(N)=O)C(=O)N[C@@H](CCC(=O)O)C(=O)N[C@@H](CC(C)C)C(=O)N[C@@H](CC(C)C)C(N)=O)[C@@H](C)CC)[C@@H](C)CC)[C@@H](C)O)nn3)CC[C@]3(C)[C@H](CC[C@@H]4[C@@]5(C)CC[C@H](OC(C)=O)C(C)(C)[C@@H]5CC[C@]43C)[C@@H]12 ({X5-βAla}-NNYTSLIHSLIEESQNQQEKNEQELL-NH2)
EC50: 327 nM

CC[C@H](C)[C@H](NC(=O)[C@H](CC(C)C)NC(=O)[C@H](CO)NC(=O)[C@H](Cc1cnc[nH]1)NC(=O)[C@@H](NC(=O)[C@H](CC(C)C)NC(=O)[C@H](CO)NC(=O)[C@@H](NC(=O)[C@H](Cc1ccc(O)cc1)NC(=O)[C@H](CC(N)=O)NC(=O)[C@H](CC(N)=O)NC(=O)CCNC(=O)Cn1cc(CCC(=O)O[C@H]2CC[C@]3(C)[C@H]4CC=C5[C@@H]6CC(C)(C)CC[C@]6(C(=O)O)CC[C@@]5(C)[C@]4(C)CC[C@H]3C2(C)C)nn1)[C@@H](C)O)[C@@H](C)CC)C(=O)N[C@@H](CCC(=O)O)C(=O)N[C@@H](CCC(=O)O)C(=O)N[C@@H](CO)C(=O)N[C@@H](CCC(N)=O)C(=O)N[C@@H](CC(N)=O)C(=O)N[C@@H](CCC(N)=O)C(=O)N[C@@H](CCC(N)=O)C(=O)N[C@@H](CCC(=O)O)C(=O)N[C@@H](CCCCN)C(=O)N[C@@H](CC(N)=O)C(=O)N[C@@H](CCC(=O)O)C(=O)N[C@@H](CCC(N)=O)C(=O)N[C@@H](CCC(=O)O)C(=O)N[C@@H](CC(C)C)C(=O)N[C@@H](CC(C)C)C(N)=O ({X6-βAla}-NNYTSLIHSLIEESQNQQEKNEQELL-NH2)
EC50: 29 nM
